Read-outs that look alike come from different tables or passages of the source.
Tests used:
[1] = Solubility test in deionized water (HPLC, external calibration); assay type: physicochemical; details: for solubility at 30 min: 25 °C, thermodynamic from solid
Method: Experimental condition: 25±2° C.
Dissolving medium: deionized water
Experimental method: 1 mg voriconazole and appropriate amount of each compound were weighed, placed in 1 ml deionized water separately, shaken vigorously for 30 s every 5 mins for 30 mins.

[2] = Pharmacokinetics after single intravenous administration in rats (plasma voriconazole); details: for T1/2 / AUClast: rat, in vivo, 2.5 mg/kg
Method: Dosage for administration: 2.5 mg/kg (calculated as voriconazole)
Dosing volume for administration: 2.5 ml/kg
Drug concentration: 1 mg/mL (calculated as voriconazole)
Route of administration: tail vein injection Experimental animals: SD rats, SPF grade, weighing 180-220 g, half male and half female; the SD rats were randomized into groups of 6 animals each, three males and three females in each group. Experimental method: Blood samples were collected at different time points after tail vein administration, and the plasma concentrations of voriconazole were measured.

[3] = Solid stability test (25°C, RH 60%, 30 days); assay type: physicochemical; details: 25°C±2°C, relative humidity 60%±2%
Method: Experimental conditions: 25° C.±2° C., relative humidity 60%±2%
Experimental instrument: Agilent 1260 HPLC; chamber for stability test
Experimental method: each compound of the present disclosure was packaged (the inner packaging material was a penicillin bottle; the outer packaging material was a double-layer aluminum foil bag, and a desiccant was added inside and outside the package), placed in the chamber for stability test, at a temperature of 25° C.±2° C. and a relative humidity of 60%±2%. The degradation situation of the compounds for 30 days was examined. The contents of total impurities before and after 30 days of each compound were compared and the results were as follows: […]

[4] = system: Candida albicans ATCC10231; test: Systemic fungal infection in mice, intravenous administration, survival; assay type: in vivo; details: ICR mice, tail vein, 5 mg/kg (calculated as voriconazole) once daily for 5 days
Method: ICR mice, weighing 18-22 g, male, provided by the Hubei Experimental Animal Center.
The standard strain Candida albicans was purchased from the American Type Culture Collection, and the strain number was ATCC10231.
Before the experiment, a small amount of Candida albicans was picked from the SDA medium preserved at 4° C. by inoculation circle, and inoculated into 1 ml YPD (Yeast Extract Peptone Dextrose Medium, the same below) culture medium, under shake cultivation at 30° C., 200 rpm, activated for 16 hours to make the fungus in the late stage of the exponential growth phase. Blood cell counting plate was used to count. The concentration of the broth was adjusted to 1*10^3-5*10^3 CFU/ml with RPMI1640 (Roswell Park Memorial Institute 1640, the same below) culture medium. The Candida albicans monoclone on the SDA plate was picked and inoculated into 1 ml YPD medium, cultured at 35° C., 200 rpm for 16 hours to the late exponential growth phase, 1% of which was then inoculated in fresh medium for 6 hours, centrifuged at 1000×g for 5 mins, washed three times with saline until the supernatant was colorless, while hemocytometer was used to count. The cell concentration was adjusted to 5*10^6/ml. The tail vein injection of 0.1 ml/10 g was carried out to cause a systemic fungal infection in mice. The mice were randomized into groups of 10 each. Since voriconazole was insoluble in vehicle (physiological saline), the mice of the voriconazole group in the test were injected a commercially available voriconazole (Pfizer, product lot number Z467001), that is, sulfobutyl ether-β-cyclodextrin used as a solubilizer, while other groups used physiological saline as a solvent. After establishing a systemic fungal infection model in mice for 2 hours, each administration group was administered with 5 mg/kg (calculated as voriconazole) drug in the tail vein, with the volume for administration of 0.1 ml/10 g. The mice in the model group were administered 0.1 ml/10 g of 0.9% sodium chloride solution, once daily, for 5 consecutive days. The death situation of the mice was inspected and the survival time was recorded. After a total of 7 days of observation, all dead mice were treated with fire using ethanol.

SMILES | T1/2 [2] | Solubility ([1]; deionized water, 25±2°C) | Content increase of total impurity (25° C., placed for 30 days) [3] | other results
CC(OC(=O)SC[C@H](N)C(=O)O)[n+]1cnn(C[C@](O)(c2ccc(F)cc2F)[C@@H](C)c2ncncc2F)c1 (some centres unmarked) [QR16034] | similar |  |  | Solubility [1]: 12.5 mg/mL
CC(OC(=O)N(C)c1ncccc1COC(=O)C(N)Cc1ccc(O)cc1)[n+]1cnn(CC(O)(c2ccc(F)cc2F)C(C)c2ncncc2F)c1.Cl.Cl.[Cl-] (centres unmarked) [QR16018] |  | >50 mg/mL | 1.15% | 
CC(OC(=O)N(C)c1ncccc1COC(=O)C[C@H](N)C(=O)O)[n+]1cnn(C[C@](O)(c2ccc(F)cc2F)[C@@H](C)c2ncncc2F)c1.[Cl-] (some centres unmarked) [QR16003] | similar | >50 mg/mL | 1.37% | 
CC(OC(=O)N(C)c1ncccc1COC(=O)CN)[n+]1cnn(C[C@](O)(c2ccc(F)cc2F)[C@@H](C)c2ncncc2F)c1.O=S(=O)([O-])O (some centres unmarked) [SF16001] |  | >50 mg/mL | 0.37% | 
CNCC[C@H](N)C(=O)OCc1cccnc1N(C)C(=O)OC(C)[n+]1cnn(C[C@](O)(c2ccc(F)cc2F)[C@@H](C)c2ncncc2F)c1 (some centres unmarked) [QR16021] |  |  | 1.14% | solubility at 30 min ([1]; deionized water, 25±2°C): > 50 mg/mL; AUClast ([2]; both, SD, iv): 7056 ± 2532 ng·h/mL
CC(OC(=O)N(C)c1ncccc1COC(=O)[C@@H](N)CCCN)[n+]1cnn(C[C@](O)(c2ccc(F)cc2F)[C@@H](C)c2ncncc2F)c1.Cl.Cl.Cl.[I-] (some centres unmarked) [QR16006] |  | >50 mg/mL | 1.14% | 
CC(OC(=O)OCCCCCOP(=O)(O)O)[n+]1cnn(C[C@](O)(c2ccc(F)cc2F)[C@@H](C)c2ncncc2F)c1 (some centres unmarked) [QR16025] | similar | >50 mg/mL | 1.57% | 
CC(OC(=O)N(C)c1ncccc1COC(=O)[C@@H](N)CCCN)[n+]1cnn(C[C@](O)(c2ccc(F)cc2F)[C@@H](C)c2ncncc2F)c1 (some centres unmarked) [SF16002] |  |  | 0.67% | solubility at 30 min ([1]; deionized water, 25±2°C): > 50 mg/mL
CC(OC(=O)N(C)c1ncccc1COC(=O)[C@@H](N)CO)[n+]1cnn(C[C@](O)(c2ccc(F)cc2F)[C@@H](C)c2ncncc2F)c1.O=S(=O)([O-])O (some centres unmarked) [SF16015] |  |  | 0.32% | 
CC(OC(=O)N(C)c1ncccc1COC(=O)[C@@H](N)CCCN)[n+]1cnn(C[C@](O)(c2ccc(F)cc2F)[C@@H](C)c2ncncc2F)c1.O=[N+]([O-])[O-] (some centres unmarked) [QR16012] |  | >50 mg/mL | 0.92% | 
CC(OC(=O)N(C)c1ncccc1COC(=O)[C@@H](N)CCCCN)[n+]1cnn(C[C@](O)(c2ccc(F)cc2F)[C@@H](C)c2ncncc2F)c1 (some centres unmarked) [SF16017] |  |  | 0.46% | 
CC(OC(=O)OCCCCOP(=O)(O)O)[n+]1cnn(C[C@](O)(c2ccc(F)cc2F)[C@@H](C)c2ncncc2F)c1 (some centres unmarked) [QR16024] | similar | >50 mg/mL | 2.84% | 
CC(OC(=O)OCCOCCOCCOP(=O)(O)O)[n+]1cnn(C[C@](O)(c2ccc(F)cc2F)[C@@H](C)c2ncncc2F)c1 (some centres unmarked) [QR16033] | similar | >50 mg/mL |  | 
CC(OC(=O)OCCOP(=O)(O)O)[n+]1cnn(C[C@](O)(c2ccc(F)cc2F)[C@@H](C)c2ncncc2F)c1 (some centres unmarked) [QR16046] |  |  | 0.79% | solubility at 30 min ([1]; deionized water, 25±2°C): > 50 mg/mL
CNCC(=O)OCc1cccnc1N(C)C(=O)OC(C)[n+]1cnn(C[C@](O)(c2ccc(F)cc2F)[C@@H](C)c2ncncc2F)c1.O=S(=O)([O-])O (some centres unmarked) [SF16020] |  |  | 0.62% | 
CC(OC(=O)NCC[C@H](N)C(=O)O)[n+]1cnn(C[C@](O)(c2ccc(F)cc2F)[C@@H](C)c2ncncc2F)c1.Cl.[Cl-] (some centres unmarked) [QR16039] | similar |  | 1.22% | 
CC(OC(=O)N(C)c1ncccc1COC(=O)CCC(=O)[O-])[n+]1cnn(C[C@](O)(c2ccc(F)cc2F)[C@@H](C)c2ncncc2F)c1.[Cl-].[Na+] (some centres unmarked) [QR16004] |  | >50 mg/mL |  | AUClast [2]: 9586 ± 2352 ng·h/mL; survival rate of mice, day 1 ([4]; day 1): 100%; survival rate of mice, day 2 ([4]; day 2): 100%; survival rate of mice, day 3 ([4]; day 3): 100%; survival rate of mice, day 4 ([4]; day 4): 90%; survival rate of mice, day 5 ([4]; day 5): 90%; survival rate of mice, day 6 ([4]; day 6): 80%
CC(OC(=O)N(C)c1ncccc1COC(=O)[C@@H](N)CC(N)=O)[n+]1cnn(C[C@](O)(c2ccc(F)cc2F)[C@@H](C)c2ncncc2F)c1.O=S(=O)([O-])O (some centres unmarked) [SF16014] |  |  | 0.36% | 
C[C@@H](c1ncncc1F)[C@](O)(Cn1cncn1)c1ccc(F)cc1F [Voriconazole, reference compound] |  |  |  | solubility at 30 min ([1]; deionized water, 25±2°C): < 1 mg/mL; plasma concentration of voriconazole ([2]; control group of voriconazole dissolved in physiological saline, tail vein injection, SD rats): not detected
CC(OC(=O)N(C)c1ncccc1COC(=O)[C@@H](N)[C@@H](C)O)[n+]1cnn(C[C@](O)(c2ccc(F)cc2F)[C@@H](C)c2ncncc2F)c1.O=S(=O)([O-])O (some centres unmarked) [SF16016] |  |  | 0.49% | 
CNCCC[C@H](N)C(=O)OCc1cccnc1N(C)C(=O)OC(C)[n+]1cnn(C[C@](O)(c2ccc(F)cc2F)[C@@H](C)c2ncncc2F)c1.[Cl-] (some centres unmarked) [QR16019] |  | >50 mg/mL | 0.88% | 
CC(OC(=O)NCC(=O)O)[n+]1cnn(C[C@](O)(c2ccc(F)cc2F)[C@@H](C)c2ncncc2F)c1 (some centres unmarked) [QR16038] | similar |  |  | 
CC(OC(=O)OCCS)[n+]1cnn(C[C@](O)(c2ccc(F)cc2F)[C@@H](C)c2ncncc2F)c1 (some centres unmarked) [Compound 16031] |  |  | 0.97% | 
C[C@@H](c1ncncc1F)[C@](O)(Cn1c[n+](CC(=O)O)cn1)c1ccc(F)cc1F [QR16043] | similar |  |  | 
CC(OC(=O)N(C)c1ncccc1COC(=O)[C@@H](N)CCC(N)=O)[n+]1cnn(C[C@](O)(c2ccc(F)cc2F)[C@@H](C)c2ncncc2F)c1.O=S(=O)([O-])O (some centres unmarked) [SF16013] |  |  | 0.48% | 
CC(OC(=O)N(C)c1ncccc1COC(=O)[C@@H](N)CCCN)[n+]1cnn(C[C@](O)(c2ccc(F)cc2F)[C@@H](C)c2ncncc2F)c1.O=P([O-])(O)O (some centres unmarked) [QR16011] |  | >50 mg/mL | 0.96% | 
